From ChEMBL document CHEMBL1201862, “PubChem BioAssay data set” (2004)
Values joined by “and” are separate entries in the source; they are usually repeats but may differ in a detail not shown here. Identical values can stand only once.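 48-hour exposure; five concentrations; linearly interpolated endpoints. GI50: concentration for 50% inhibition of growth.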 Active and inactive are the calls of the source. Cut-off read from the data, not from the text of the source: active = GI50 up to about 1.1 µM and inactive = higher.

Legend:
Experiment in all cases: NCI tumour cell line growth inhibition, 48 h
[1] = system: 786-0
[2] = system: A498
[3] = system: A549
[4] = system: ACHN
[5] = system: CCRF-CEM
[6] = system: COLO 205
[7] = system: DLD-1
[8] = system: DMS-114
[9] = system: EKVX
[10] = system: HCC 2998
[11] = system: HCT-116
[12] = system: HCT-15
[13] = system: HL-60
[14] = system: HOP-18
[15] = system: HOP-62
[16] = system: HOP-92
[17] = system: HT-29
[18] = system: IGROV-1
[19] = system: KM-20L2
[20] = system: KM12
[21] = system: LOX IMVI
[22] = system: LXFL 529
[23] = system: M14
[24] = system: M19-MEL
[25] = system: Malme-3M
[26] = system: NCI-H226
[27] = system: NCI-H23
[28] = system: NCI-H460
[29] = system: NCI-H522
[30] = system: OVCAR-3
[31] = system: OVCAR-4
[32] = system: OVCAR-5
[33] = system: OVCAR-8
[34] = system: RXF 393
[35] = system: SF-268
[36] = system: SF-295
[37] = system: SF-539
[38] = system: SK-MEL-28
[39] = system: SK-MEL-2
[40] = system: SK-MEL-5
[41] = system: SK-OV-3
[42] = system: SN12C
[43] = system: SNB-19
[44] = system: SNB-75
[45] = system: SNB-78
[46] = system: SW-620
[47] = system: TK-10
[48] = system: U-251
[49] = system: UACC-257
[50] = system: UACC-62
[51] = system: UO-31
[52] = system: XF498
[53] = system: MOLT-4
[54] = system: RPMI-8226
[55] = system: DMS-273
[56] = system: DU-145
[57] = system: MDA-N
[58] = system: T47D

CCCCCCCCCCCCCCNCC(OCC)OCC
GI50 [1]: 16.9 µM (inactive) | GI50 [2]: 14.4 µM (inactive) | GI50 [3]: 19.4 µM (inactive) | GI50 [4]: 12.6 µM (inactive) | GI50 [5]: 4.84 µM (inactive) | GI50 [6]: 14.4 µM (inactive) | GI50 [7]: 13.7 µM (inactive) | GI50 [8]: 12.1 µM (inactive) | GI50 [9]: 17.7 µM (inactive) | GI50 [10]: 13.4 µM (inactive) | GI50 [11]: 11.1 µM (inactive) | GI50 [12]: 8.47 µM | GI50 [13]: 2.85 µM (inactive) | GI50 [14]: 16.6 µM (inactive) | GI50 [15]: 16.5 µM (inactive) | GI50 [16]: 11.5 µM (inactive) | GI50 [17]: 2.86 µM (inactive) | GI50 [18]: 15.2 µM (inactive) | GI50 [19]: 10.9 µM (inactive) | GI50 [20]: 10.3 µM (inactive) | GI50 [21]: 16.3 µM (inactive) | GI50 [22]: 15.1 µM (inactive) | GI50 [23]: 14.1 µM (inactive) | GI50 [24]: 16.2 µM (inactive) | GI50 [25]: 17.1 µM (inactive) | GI50 [26]: 18.4 µM (inactive) | GI50 [27]: 16.1 µM (inactive) | GI50 [28]: 17.1 µM (inactive) | GI50 [29]: 3.66 µM (inactive) | GI50 [30]: 18.3 µM (inactive) | GI50 [31]: 13.6 µM (inactive) | GI50 [32]: 15.3 µM (inactive) | GI50 [33]: 18.5 µM (inactive) | GI50 [34]: 10.2 µM (inactive) | GI50 [35]: 17.3 µM (inactive) | GI50 [36]: 16.7 µM (inactive) | GI50 [37]: 16.1 µM (inactive) | GI50 [38]: 16.9 µM (inactive) | GI50 [39]: 14.5 µM (inactive) | GI50 [40]: 13.9 µM (inactive) | GI50 [41]: 18.6 µM (inactive) | GI50 [42]: 13.7 µM (inactive) | GI50 [43]: 16.5 µM (inactive) | GI50 [44]: 10.4 µM (inactive) | GI50 [45]: 16.8 µM (inactive) | GI50 [46]: 15.3 µM (inactive) | GI50 [47]: 17.4 µM (inactive) | GI50 [48]: 15.1 µM (inactive) | GI50 [49]: 16.7 µM (inactive) | GI50 [50]: 18.1 µM (inactive) | GI50 [51]: 10.7 µM (inactive) | GI50 [52]: 13.6 µM (inactive)

N#CC(/C(CCC(=O)Nc1ccc(Cl)cc1)=N/NC(=O)c1cc2ccccc2cc1O)c1ccccc1 (centres undefined)
GI50 [1]: 38.3 µM (inactive) | GI50 [3]: 40.8 µM (inactive) | GI50 [4]: 24.9 µM (inactive) | GI50 [5]: 10.2 µM (inactive) | GI50 [6]: 40.3 µM (inactive) | GI50 [7]: 33.7 µM (inactive) | GI50 [8]: 25.4 µM (inactive) | GI50 [9]: 34.4 µM (inactive) | GI50 [10]: 52.2 µM (inactive) | GI50 [11]: 31.3 µM (inactive) | GI50 [13]: 6.53 µM (inactive) | GI50 [14]: 21.5 µM (inactive) | GI50 [15]: 31.3 µM (inactive) | GI50 [16]: 40.9 µM (inactive) | GI50 [17]: 45.9 µM (inactive) | GI50 [18]: 31.7 µM (inactive) | GI50 [19]: 28.6 µM (inactive) | GI50 [20]: 35.9 µM (inactive) | GI50 [21]: 14.5 µM (inactive) | GI50 [22]: 43 µM (inactive) | GI50 [23]: 32.6 µM (inactive) | GI50 [24]: 33.7 µM (inactive) | GI50 [53]: 22.2 µM (inactive) | GI50 [25]: 50 µM (inactive) | GI50 [26]: 42.2 µM (inactive) | GI50 [27]: 39.3 µM (inactive) | GI50 [28]: 30.7 µM (inactive) | GI50 [30]: 30.5 µM (inactive) | GI50 [31]: 51.9 µM (inactive) | GI50 [32]: 22.8 µM (inactive) | GI50 [33]: 32.2 µM (inactive) | GI50 [54]: 14.9 µM (inactive) | GI50 [34]: 56.5 µM (inactive) | GI50 [35]: 25.4 µM (inactive) | GI50 [36]: 39.8 µM (inactive) | GI50 [38]: 48.8 µM (inactive) | GI50 [39]: 19.7 µM (inactive) | GI50 [40]: 19.4 µM (inactive) | GI50 [42]: 43.4 µM (inactive) | GI50 [43]: 47.9 µM (inactive) | GI50 [44]: 45 µM (inactive) | GI50 [45]: 66.1 µM (inactive) | GI50 [46]: 50.4 µM (inactive) | GI50 [47]: 56.5 µM (inactive) | GI50 [48]: 32.8 µM (inactive) | GI50 [49]: 30.7 µM (inactive) | GI50 [50]: 25.1 µM (inactive) | GI50 [51]: 36.8 µM (inactive) | GI50 [52]: 54.8 µM (inactive)

CN(C)CC1CCCC(CN(C)C)C1=O (centres undefined)
GI50 [1]: 2.32 µM (inactive) and 1.77 µM (inactive) | GI50 [3]: 24.9 µM (inactive) and 27.2 µM (inactive) | GI50 [4]: 1.33 µM (inactive) and 1.87 µM (inactive) | GI50 [6]: 1.67 µM (inactive) and 3.33 µM (inactive) | GI50 [7]: 1.12 µM (active) | GI50 [8]: 1.48 µM (inactive) | GI50 [55]: 10.9 µM (inactive) | GI50 [56]: > 10 µM (inactive) and 15.6 µM (inactive) | GI50 [9]: 5.74 µM (inactive) and 6.61 µM (inactive) | GI50 [10]: 13.9 µM (inactive) and 19.3 µM (inactive) | GI50 [14]: 1.83 µM (inactive) | GI50 [16]: 1.91 µM (inactive) and 968 nM (active) | GI50 [18]: 19.3 µM (inactive) and 18.1 µM (inactive) | GI50 [19]: 5.02 µM (inactive) | GI50 [22]: 0.386 µM (active) | GI50 [24]: 3.65 µM (inactive) | GI50 [57]: 11 µM (inactive) and 12.1 µM (inactive) | GI50 [53]: 241 nM (active) and 450 nM (active) | GI50 [28]: 19.8 µM (inactive) and 17.5 µM (inactive) | GI50 [30]: 2.58 µM (inactive) and 1.95 µM (inactive) | GI50 [32]: 18.2 µM (inactive) and 18.3 µM (inactive) | GI50 [33]: 2.71 µM (inactive) and 2.98 µM (inactive) | GI50 [34]: 1.73 µM (inactive) and 1.26 µM (inactive) | GI50 [39]: 8.73 µM (inactive) and 17.2 µM (inactive) | GI50 [40]: 8.38 µM (inactive) and 16 µM (inactive) | GI50 [43]: > 45.6 µM (inactive) and 47 µM (inactive) | GI50 [44]: 16.4 µM (inactive) and 13.9 µM (inactive) | GI50 [45]: 3.5 µM (inactive) | GI50 [46]: 196 nM (active) and 271 nM (active) | GI50 [58]: 1.69 µM (inactive) and 1.24 µM (inactive) | GI50 [48]: 10.7 µM (inactive) and 17.9 µM (inactive) | GI50 [49]: 2.34 µM (inactive) and 2.11 µM (inactive) | GI50 [52]: 2.09 µM (inactive)
